According to US8088791B2, “Antibacterial agents” (Biots Scientific Management Pty Ltd, priority 2006, dated 2012):
≈ marks a conversion by molar mass, not a printed value. Where two headings read alike, the source gives them in different places.

Key:
[1] = test system: Staphylococcus aureus ATCC29213; experiment: Minimum Inhibitory Concentration (MIC) testing, broth microdilution, Staphylococcus aureus; format: cell-based; conditions: Staphylococcus aureus ATCC29213; read-out: Staphylococcus aureus MICs Activity
Method in brief: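 Broth microdilution per NCCLS M7-A5 in Mueller Hinton broth, with compound in 1.6% DMSO and inoculum at OD 0.09 diluted 1:100. Plates incubated 16–20 h at 37°C. MIC is the lowest concentration with no visible growth; scored A ≤8, B 16–64, C >64 μg/ml.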

Bacillus subtilis 168CA = experiment: Minimum Inhibitory Concentration (MIC) testing, broth microdilution, Bacillus subtilis; format: cell-based; conditions: read-out: Bacillus subtilis MICs Activity
Method in brief: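 MICs were scored A (≦8 μg/ml), B (16–64 μg/ml) or C (>64 μg/ml), read as the lowest concentration preventing visible growth by eye and spectrophotometry. Plates incubated overnight (16–20 h) at 37 °C, inoculum OD 0.09 diluted 1:100 in 2× broth, per NCCLS guidelines.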

Row | SMILES | MIC [1] [µg/mL] | MIC (Bacillus subtilis 168CA; Bacillus subtilis 168CA) [µg/mL] | MIC (Bacillus subtilis 168CA; Bacillus subtilis, 168CA) [µg/mL]
1 | COc1ccc(-c2nc(COc3ccc(F)c(C(N)=O)c3F)sc2-c2ccc(N)cc2)cc1 [Example 285, 2,6-Difluoro-3-[5-(4-amino-phenyl)-4-(4-methoxy-phenyl)-thiazol-2-ylmethoxy]-benzamide] | < 8 | < 8 | –
2 | COc1ccc(-c2nc(COc3ccc(F)c(C(N)=O)c3F)sc2C2CC2)cc1 [Example 286, 3-[5-Cyclopropyl-4-(4-methoxy-phenyl)-thiazol-2-ylmethoxy]-2,6-difluoro-benzamide] | < 8 | < 8 | –
3 | COc1ccc(-c2nc(COc3ccc(F)c(C(N)=O)c3F)sc2-c2cscn2)cc1 [Example 288, 2,6-Difluoro-3-[4′-(4-methoxy-phenyl)-[4,5′]bithiazolyl-2′-ylmethoxy]-benzamide] | < 8 | < 8 | –
4 | COc1ccc(-c2nc(COc3ccc(F)c(C(N)=O)c3F)sc2C#N)cc1 [Example 289, 3-[5-Cyano-4-(4-methoxy-phenyl)-thiazol-2-ylmethoxy]-2,6-difluoro-benzamide] | < 8 | < 8 | –
5 | NC(=O)c1c(F)ccc(OCc2nc(-c3ccc(O)cc3)cs2)c1F [Example 290, 2,6-Difluoro-3-[4-(4-hydroxy-phenyl)-thiazol-2-ylmethoxy]-benzamide] | < 8 | < 8 | –
6 | N#Cc1ccc(-c2nc(COc3ccc(F)c(C(N)=O)c3F)sc2Br)cc1 [Example 291, 3-[5-Bromo-4-(4-cyano-phenyl)-thiazol-2-ylmethoxy]-2,6-difluoro-benzamide] | < 8 | < 8 | –
7 | NC(=O)c1c(F)ccc(OCc2nc(-c3ccc(OC(F)(F)F)cc3)no2)c1F [Example 292] | < 8 | < 8 | –
8 | COc1ccc(-c2nc(COc3ccc(F)c(C(N)=O)c3F)co2)cc1 [Example 293, 2,6-Difluoro-3-[2-(4-methoxy-phenyl)-oxazol-4-ylmethoxy]-benzamide] | < 8 | < 8 | –
9 | NC(=O)c1c(F)ccc(OCc2coc(-c3ccc(Cl)cc3)n2)c1F [Example 294, 3-[2-(4-Chloro-phenyl)-oxazol-4-ylmethoxy]-2,6-difluoro-benzamide] | < 8 | < 8 | –
10 | Cc1ccc(-c2nc(COc3ccc(F)c(C(N)=O)c3F)co2)cc1 [Example 295, 2,6-Difluoro-3-(2-p-tolyl-oxazol-4-ylmethoxy)-benzamide] | < 8 | < 8 | –
11 | COc1ccc(-c2nc(COc3ccc(F)c(C(N)=O)c3F)c(C)o2)cc1 [Example 296, 2,6-Difluoro-3-[2-(4-methoxy-phenyl)-5-methyl-oxazol-4-ylmethoxy]-benzamide] | < 8 | < 8 | –
12 | Cc1oc(-c2ccc(Cl)cc2)nc1COc1ccc(F)c(C(N)=O)c1F [Example 297, 3-[2-(4-Chloro-phenyl)-5-methyl-oxazol-4-ylmethoxy]-2,6-difluoro-benzamide] | < 8 | < 8 | –
13 | NC(=O)c1c(F)ccc(OCc2csc(-c3ccc(O)cc3)n2)c1F [Example 304, 2,6-Difluoro-3-[2-(4-hydroxy-phenyl)-thiazol-4-ylmethoxy]-benzamide] | < 8 | < 8 | –
14 | NC(=O)c1c(F)ccc(OCc2csc(-c3ccc(F)cc3)n2)c1F [Example 305, 2,6-Difluoro-3-[2-(4-fluoro-phenyl)-thiazol-4-ylmethoxy]-benzamide] | < 8 | < 8 | –
15 | NC(=O)c1c(F)ccc(OCc2csc(-c3ccc(Cl)cc3)n2)c1F [Example 306, 3-[2-(4-Chloro-phenyl)-thiazol-4-ylmethoxy]-2,6-difluoro-benzamide] | < 8 | < 8 | –
16 | NC(=O)c1c(F)ccc(OCc2csc(-c3ccc(OC(F)(F)F)cc3)n2)c1F [Example 307, 2,6-Difluoro-3-[2-(4-trifluoromethoxy-phenyl)-thiazol-4-ylmethoxy]-benzamide] | < 8 | < 8 | –
17 | NC(=O)c1c(F)ccc(OCc2csc(-c3cccc(O)c3)n2)c1F [Example 308, 2,6-Difluoro-3-[2-(3-hydroxy-phenyl)-thiazol-4-ylmethoxy]-benzamide] | 16 to 64 (≈ 44.2 to 177 µM) | < 8 | –
18 | NC(=O)c1c(F)ccc(OCc2nc(-c3ccc(Cl)cc3)co2)c1F [Example 309, 3-[4-(4-Chloro-phenyl)-oxazol-2-ylmethoxy]-2,6-difluoro-benzamide] | < 8 | < 8 | –
19 | NC(=O)c1c(F)ccc(OCc2nc(-c3ccccc3)co2)c1F [Example 310, 2,6-Difluoro-3-(4-phenyl-oxazol-2-ylmethoxy)-benzamide] | 16 to 64 (≈ 48.4 to 194 µM) | < 8 | –
20 | NC(=O)c1c(F)ccc(OCc2nc3cc(C4=CCCC4)ccc3s2)c1F [Example 316] | < 8 | – | < 8

Second part, led by results:

Row | MIC [1] [µg/mL] | MIC (Bacillus subtilis 168CA; Bacillus subtilis 168CA) [µg/mL] | SMILES | MIC (Bacillus subtilis 168CA; Bacillus subtilis, 168CA) [µg/mL]
21 | < 8 | 16 to 64 (≈ 46.2 to 185 µM) | NC(=O)c1c(F)ccc(OCc2nc(-c3ccc(O)cc3)co2)c1F [Example 312, 2,6-Difluoro-3-[4-(4-hydroxy-phenyl)-oxazol-2-ylmethoxy]-benzamide] | –
22 | < 8 | < 8 | COC(=O)c1sc(COc2ccc(F)c(C(N)=O)c2F)nc1-c1ccc(OC)cc1 [Example 313, 2-(3-Carbamoyl-2,4-difluoro-phenoxymethyl)-4-(4-methoxy-phenyl)-thiazole-5-carboxylic acid methyl ester] | –
23 | 16 to 64 (≈ 40 to 160 µM) | < 8 | NC(=O)c1c(F)ccc(OCc2nc3cc(C4=CCCCC4)ccc3s2)c1F [Example 314] | –
24 | < 8 | < 8 | NC(=O)c1c(F)ccc(OCc2nc3cc(C4CCCCC4)ccc3s2)c1F [Example 315] | –
25 | < 8 | < 8 | NC(=O)c1c(F)ccc(OCc2nc3cc(C4CCCC4)ccc3s2)c1F [Example 317] | –
26 | < 8 | < 8 | NC(=O)c1c(F)ccc(OCc2nc(-c3ccc(F)cc3)cs2)c1F [Example 318, 2,6-Difluoro-3-[4-(4-fluoro-phenyl)-thiazol-2-ylmethoxy]-benzamide] | –
27 | < 8 | < 8 | NC(=O)c1c(F)ccc(OCc2nc(-c3ccc(C(F)(F)F)cc3)cs2)c1F [Example 319, 2,6-Difluoro-3-[4-(4-trifluoromethyl-phenyl)-thiazol-2-ylmethoxy]-benzamide] | –
28 | < 8 | < 8 | NC(=O)c1c(F)ccc(OCc2nc(-c3ccc(OC(F)(F)F)cc3)cs2)c1F [Example 320, 2,6-Difluoro-3-[4-(4-trifluoromethoxy-phenyl)-thiazol-2-ylmethoxy]-benzamide] | –
29 | < 8 | < 8 | COC(=O)c1ccc2nc(COc3ccc(F)c(C(N)=O)c3F)sc2c1 [Example 321, 2-(3-Carbamoyl-2,4-difluoro-phenoxymethyl)-benzothiazole-6-carboxylic acid methyl ester] | –
30 | < 8 | < 8 | NC(=O)c1c(F)ccc(OCc2nc(-c3ccc4c(c3)OCO4)no2)c1F [Example 322, 3-(3-Benzo[1,3]dioxol-5-yl-[1,2,4]oxadiazol-5-ylmethoxy)-2,6-difluoro-benzamide] | –
31 | < 8 | < 8 | COc1ccc(-c2nc(COc3ccc(F)c(C(N)=O)c3F)cs2)cc1 [Example 323, 2,6-Difluoro-3-[2-(4-methoxy-phenyl)-thiazol-4-ylmethoxy]-benzamide] | –
32 | < 8 | < 8 | CC(Oc1ccc(F)c(C(N)=O)c1F)c1nc(-c2ccc(Cl)cc2)no1 (stereo not shown) [Example 324, 3-{1-[3-(4-Chloro-phenyl)-[1,2,4]oxadiazol-5-yl]-ethoxy}-2,6-difluoro-benzamide] | –
33 | 16 to 64 (≈ 46.5 to 186 µM) | < 8 | Cc1nn(-c2ccccc2)nc1COc1ccc(F)c(C(N)=O)c1F [Example 325, 2,6-Difluoro-3-(5-methyl-2-phenyl-2H-[1,2,3]triazol-4-ylmethoxy)-benzamide] | –
34 | 16 to 64 (≈ 47.3 to 189 µM) | 16 to 64 (≈ 47.3 to 189 µM) | NC(=O)c1c(F)ccc(OCc2nc(-c3nccs3)no2)c1F [Example 326, 2,6-Difluoro-3-(3-thiazol-2-yl-[1,2,4]oxadiazol-5-ylmethoxy)-benzamide] | –
35 | < 8 | < 8 | NC(=O)c1c(F)ccc(OCc2nc3cc(Oc4ccccc4)ccc3s2)c1F [Example 327, 2,6-Difluoro-3-(5-phenoxy-benzothiazol-2-ylmethoxy)-benzamide] | –
36 | 16 to 64 (≈ 53.7 to 215 µM) | < 8 | NC(=O)c1c(F)ccc(OCc2cccc(Cl)c2)c1F [Example 331, 3-(3-Chloro-benzyloxy)-2,6-difluoro-benzamide] | –
37 | < 8 | < 8 | Cc1ccc(-c2nc(CCOc3ccc(F)c(C(N)=O)c3F)c(C)o2)cc1 [Example 333, 2,6-Difluoro-3-[2-(5-methyl-2-p-tolyl-oxazol-4-yl)-ethoxy]-benzamide] | –
38 | < 8 | 16 to 64 (≈ 44.2 to 177 µM) | NC(=O)c1c(F)ccc(OCc2nc(-c3cccc(O)c3)cs2)c1F [Example 334, 2,6-Difluoro-3-[4-(3-hydroxy-phenyl)-thiazol-2-ylmethoxy]-benzamide] | –
